Reference: paper PMC11094777, “Mutational and structural studies of (βα)8‐barrel fold methylene‐tetrahydropterin reductases utilizing a common catalytic mechanism” (Protein Science : A Publication of the Protein Society, 2024)
Where two headings read alike, the source gives them in different places.

Columns and labels:
Assay in all cases: F420H2 oxidation followed at […] nm, anaerobic
Format in all cases: biochemical
[1] = target: T1, jMer (F420-dependent methylene-H4MPT reductase from Methanocaldococcus jannaschii) (Methanocaldococcus jannaschii, UniProt Q58929); details: 20 μM F420H2, 100 mM Tris/HCl pH 8.0, 55°C; read-out: App. K m
T1 construct: gene mer; pT7-7_jMer in E. coli ArcticExpress (DE3); no tag mentioned; heat step and column purification; homodimer ~80 kDa

[2] = target: T1, jMer (F420-dependent methylene-H4MPT reductase from Methanocaldococcus jannaschii); details: 20 μM F420H2, 100 mM Tris/HCl pH 8.0, 55°C; methylene-H4MPT made in situ from H4MPT and 15 mM formaldehyde; read-out: App. K m
[3] = target: T2, jMer (F420-dependent methylene-H4MPT reductase from Methanocaldococcus jannaschii) (Methanocaldococcus jannaschii, UniProt Q58929, E6Q, form not given); details: 20 μM F420H2, 100 mM Tris/HCl pH 8.0, 55°C; read-out: App. K m
T2 construct: gene mer; pT7-7_jMer in E. coli ArcticExpress (DE3); no tag mentioned; heat step and column purification; homodimer ~80 kDa

[4] = target: T3, jMer (F420-dependent methylene-H4MPT reductase from Methanocaldococcus jannaschii) (Methanocaldococcus jannaschii, UniProt Q58929, D96N, form not given); details: 20 μM F420H2, 100 mM Tris/HCl pH 8.0, 55°C; read-out: App. K m
T3 construct: gene mer; pT7-7_jMer in E. coli ArcticExpress (DE3); no tag mentioned; heat step and column purification; homodimer ~80 kDa
T3 sequence (Q58929 whole entry D96N, form open): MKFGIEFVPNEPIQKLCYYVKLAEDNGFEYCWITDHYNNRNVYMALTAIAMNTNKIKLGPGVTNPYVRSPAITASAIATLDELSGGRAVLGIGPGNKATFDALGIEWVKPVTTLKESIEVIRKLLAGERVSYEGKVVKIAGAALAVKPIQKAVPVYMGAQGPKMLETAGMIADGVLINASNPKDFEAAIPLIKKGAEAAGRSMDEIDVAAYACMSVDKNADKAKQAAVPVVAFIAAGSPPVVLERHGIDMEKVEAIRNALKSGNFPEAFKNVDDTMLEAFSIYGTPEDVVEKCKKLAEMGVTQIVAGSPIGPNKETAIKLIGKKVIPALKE

T1 sequence (Q58929 whole entry): as the sequence (Q58929 whole entry D96N, form open) above, with N96D counted along it
T2 sequence (Q58929 whole entry E6Q, form open): as the sequence (Q58929 whole entry D96N, form open) above, with E6Q, N96D counted along it

- Km [1]: 20 ± 5 µM
- Km [2]: 58 ± 29.7 µM
- Km [3]: 34 ± 10 µM
- Km [4]: 140 ± 30 µM
SMILES: C[C@@H]1Nc2nc(N)[nH]c(=O)c2N2CN(c3ccc(C[C@H](O)[C@H](O)[C@H](O)CO[C@H]4O[C@H](COP(=O)(O)O[C@@H](CCC(=O)O)C(=O)O)[C@@H](O)[C@H]4O)cc3)[C@H](C)[C@@H]12 [Methylene‐H4MPT]
